Earlier results as cited in US8268828B2, “Inhibitors of the chemokine receptor CxCR3” (Sanofi, priority 2008, dated 2012).

Assays:
[1] = tested on: Collagen Induced Arthritis (CIA); conditions: CIA mice

SMILES	reduction of the number of metastases (metastatic breast cancer; mouse model of metastatic breast cancer)	direct effect on proliferation (metastatic breast cancer; tumor cells)	classical picture of inflammation (swollen red joints in limbs) [1]	leukocytic infiltration of joints ([1]; histologic evaluation)
CCOc1ccc(-n2c([C@@H](C)N(Cc3cccnc3)C(=O)Cc3ccc(OC(F)(F)F)cc3)nc3ncccc3c2=O)cc1 [AMG-487]	60%	no direct effect	–	–
Cc1ccc(-c2ccc3c(c2)C=C(C(=O)Nc2ccc(C[N+](C)(C)C4CCOCC4)cc2)CCC3)cc1.[Cl-] [TAK-779]	–	–	ablated	blocked
